What all share (assay): relative viability (nuclei count vs DMSO), 5 days (fraction); higher = more cells survive
Compound in the experiment “Palbociclib + Trametinib”: CC(=O)c1c(C)c2cnc(Nc3ccc(N4CCNCC4)cn3)nc2n(C2CCCC2)c1=O [Palbociclib] + CC(=O)Nc1cccc(-n2c(=O)n(C3CC3)c(=O)c3c(Nc4ccc(I)cc4F)n(C)c(=O)c(C)c32)c1 [Trametinib] (partner 0.02 µM)
The method, boiled down: (§1)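 Lung cancer cell lines in 1536-well plates got either a single drug or a fixed anchor-drug dose together with five library-drug doses (not always all listed) in √10 steps, by pin tool, on the day after seeding. Nuclei were counted after 5 days, and relative viability is the treated-to-vehicle ratio of nuclei counts. Values are medians of duplicate plates.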

Compound in the experiment “Palbociclib + Navitoclax”: CC(=O)c1c(C)c2cnc(Nc3ccc(N4CCNCC4)cn3)nc2n(C2CCCC2)c1=O [Palbociclib] + CC1(C)CCC(c2ccc(Cl)cc2)=C(CN2CCN(c3ccc(C(=O)NS(=O)(=O)c4ccc(N[C@H](CCN5CCOCC5)CSc5ccccc5)c(S(=O)(=O)C(F)(F)F)c4)cc3)CC2)C1 [Navitoclax] (partner 0.5 µM)
A digest of the protocol:
as §1

Compound in the experiment “Palbociclib + Tozasertib”: CC(=O)c1c(C)c2cnc(Nc3ccc(N4CCNCC4)cn3)nc2n(C2CCCC2)c1=O [Palbociclib] + Cc1cc(Nc2cc(N3CCN(C)CC3)nc(Sc3ccc(NC(=O)C4CC4)cc3)n2)n[nH]1 [Tozasertib] (partner 0.1 µM)
The method, boiled down:
as §1

Compound in the experiment “Palbociclib + Decitabine”: CC(=O)c1c(C)c2cnc(Nc3ccc(N4CCNCC4)cn3)nc2n(C2CCCC2)c1=O [Palbociclib] + Nc1ncn([C@H]2C[C@H](O)[C@@H](CO)O2)c(=O)n1 [Decitabine] (partner 2 µM)
A digest of the protocol:
as §1

For HCC-366, the relative viability with Palbociclib + Trametinib (first compound 0.01 µM) amounted to 0.466; with Palbociclib + Trametinib (first compound 0.1 µM), 0.41; in the experiment with Palbociclib + Trametinib (first compound 0.3162 µM) it was 0.298; in the experiment with Palbociclib + Trametinib (first compound 1 µM) it was 0.24; in the experiment with Palbociclib + Navitoclax (first compound 0.01 µM), 1.05; with Palbociclib + Navitoclax (first compound 0.1 µM), 0.996. Moreover, the relative viability stood at 0.877 with Palbociclib + Navitoclax (first compound 0.3162 µM); 0.803 with Palbociclib + Navitoclax (first compound 1 µM); 0.135 in the experiment with Palbociclib + Tozasertib (first compound 0.01 µM); 0.149 with Palbociclib + Tozasertib (first compound 0.1 µM); 0.129 in the experiment with Palbociclib + Tozasertib (first compound 0.3162 µM); 0.139 in the experiment with Palbociclib + Tozasertib (first compound 1 µM). Moreover, the relative viability with Palbociclib + Decitabine (first compound 0.01 µM) came out at 0.338; with Palbociclib + Decitabine (first compound 0.1 µM) it was 0.33; in the experiment with Palbociclib + Decitabine (first compound 0.3162 µM) it was 0.334; in the experiment with Palbociclib + Decitabine (first compound 1 µM) it was 0.342.

As to HCC-827, the relative viability in the experiment with Palbociclib + Trametinib (first compound 0.01 µM) was found to be 0.545; with Palbociclib + Trametinib (first compound 0.03162 µM), 0.52; in the experiment with Palbociclib + Trametinib (first compound 0.1 µM) it was 0.449; in the experiment with Palbociclib + Trametinib (first compound 0.3162 µM), 0.476; with Palbociclib + Trametinib (first compound 1 µM), 0.399; with Palbociclib + Navitoclax (first compound 0.01 µM), 1.03. The relative viability was 1.01 with Palbociclib + Navitoclax (first compound 0.03162 µM); 0.99 in the experiment with Palbociclib + Navitoclax (first compound 0.1 µM); 0.953 with Palbociclib + Navitoclax (first compound 0.3162 µM); 0.769 with Palbociclib + Navitoclax (first compound 1 µM); 0.424 in the experiment with Palbociclib + Tozasertib (first compound 0.01 µM); 0.4 with Palbociclib + Tozasertib (first compound 0.03162 µM). The relative viability was found to be 0.358 with Palbociclib + Tozasertib (first compound 0.1 µM); 0.389 with Palbociclib + Tozasertib (first compound 0.3162 µM); 0.366 in the experiment with Palbociclib + Tozasertib (first compound 1 µM); 0.369 with Palbociclib + Decitabine (first compound 0.01 µM); 0.294 in the experiment with Palbociclib + Decitabine (first compound 0.03162 µM); 0.289 in the experiment with Palbociclib + Decitabine (first compound 0.1 µM). For the same cell line, the relative viability in the experiment with Palbociclib + Decitabine (first compound 0.3162 µM) amounted to 0.314; with Palbociclib + Decitabine (first compound 1 µM) it was 0.265.

With HOP-62, the relative viability was determined as 0.431 with Palbociclib + Trametinib (first compound 0.01 µM); 0.36 with Palbociclib + Trametinib (first compound 0.1 µM); 0.382 with Palbociclib + Trametinib (first compound 0.3162 µM); 0.288 with Palbociclib + Trametinib (first compound 1 µM); 0.959 with Palbociclib + Navitoclax (first compound 0.01 µM); 0.68 in the experiment with Palbociclib + Navitoclax (first compound 0.03162 µM). Also, the relative viability was 0.893 in the experiment with Palbociclib + Navitoclax (first compound 0.1 µM); 0.86 with Palbociclib + Navitoclax (first compound 0.3162 µM); 0.625 in the experiment with Palbociclib + Navitoclax (first compound 1 µM); 0.368 with Palbociclib + Tozasertib (first compound 0.01 µM); 0.344 in the experiment with Palbociclib + Tozasertib (first compound 0.1 µM); 0.347 with Palbociclib + Tozasertib (first compound 0.3162 µM). Also, the relative viability with Palbociclib + Tozasertib (first compound 1 µM) was found to be 0.338; with Palbociclib + Decitabine (first compound 0.01 µM) it was 0.179; with Palbociclib + Decitabine (first compound 0.1 µM), 0.237; in the experiment with Palbociclib + Decitabine (first compound 0.3162 µM), 0.207; with Palbociclib + Decitabine (first compound 1 µM), 0.257.

In the case of IA-LM, the relative viability was 0.589 with Palbociclib + Navitoclax (first compound 0.01 µM); 0.43 with Palbociclib + Navitoclax (first compound 0.03162 µM); 0.234 with Palbociclib + Navitoclax (first compound 0.1 µM); 0.206 with Palbociclib + Navitoclax (first compound 0.3162 µM); 0.119 with Palbociclib + Navitoclax (first compound 1 µM).

Take LC-2-ad: the relative viability in the experiment with Palbociclib + Trametinib (first compound 0.01 µM) is 0.966; with Palbociclib + Trametinib (first compound 0.03162 µM), 0.884; with Palbociclib + Trametinib (first compound 0.1 µM) it was 0.889; with Palbociclib + Trametinib (first compound 0.3162 µM) it was 0.804; in the experiment with Palbociclib + Trametinib (first compound 1 µM), 0.666; in the experiment with Palbociclib + Navitoclax (first compound 0.01 µM), 0.555. The relative viability turned out to be 0.402 with Palbociclib + Navitoclax (first compound 0.1 µM); 0.383 in the experiment with Palbociclib + Navitoclax (first compound 0.3162 µM); 0.337 with Palbociclib + Navitoclax (first compound 1 µM); 0.461 in the experiment with Palbociclib + Tozasertib (first compound 0.01 µM); 0.453 in the experiment with Palbociclib + Tozasertib (first compound 0.1 µM); 0.428 in the experiment with Palbociclib + Tozasertib (first compound 0.3162 µM). Further, the relative viability is 0.439 with Palbociclib + Tozasertib (first compound 1 µM); 0.82 with Palbociclib + Decitabine (first compound 0.01 µM); 0.781 in the experiment with Palbociclib + Decitabine (first compound 0.03162 µM); 0.758 with Palbociclib + Decitabine (first compound 0.1 µM); 0.691 with Palbociclib + Decitabine (first compound 0.3162 µM); 0.756 with Palbociclib + Decitabine (first compound 1 µM).
